Reference: US6790854B2, “Diphenylalkylamine derivatives useful as opioid receptor agonists” (Meiji Seika Kaisha, Ltd., priority 2000, dated 2004)

Target: T1, opioid δ receptor (Rattus norvegicus, UniProt P33533)
T1 construct: A membrane fraction of opioid δ receptor was prepared from the rat forebrain; from tissue; host or cells: rat forebrain membrane fraction
Assay: Binding affinity for opioid δ receptor ([3H]-Naltrindole displacement, rat forebrain membrane fraction)
Settings: [3H]-Naltrindole 1 nM, 25° C., 90 minutes, Ki calculated from IC50 by the Cheng-Prusoff equation

T1 sequence (P33533 whole entry): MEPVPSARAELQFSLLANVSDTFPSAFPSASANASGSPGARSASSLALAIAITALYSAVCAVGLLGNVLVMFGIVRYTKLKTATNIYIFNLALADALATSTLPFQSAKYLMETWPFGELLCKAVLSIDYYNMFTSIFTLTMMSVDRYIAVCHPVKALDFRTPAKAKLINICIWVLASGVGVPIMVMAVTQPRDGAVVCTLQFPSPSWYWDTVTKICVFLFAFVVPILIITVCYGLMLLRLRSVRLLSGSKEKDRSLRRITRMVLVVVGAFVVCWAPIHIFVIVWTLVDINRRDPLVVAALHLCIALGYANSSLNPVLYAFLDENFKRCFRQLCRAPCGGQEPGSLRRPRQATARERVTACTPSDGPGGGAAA

**Q.** With `CCN(CC)C(=O)c1ccc(C(CCN2CCC3(CC2)CNC(=O)c2cccc(C)c23)c2ccccc2OC)cc1` (stereo not shown) [Example 9, 1′-[3-(4-Diethylcarbamoylphenyl)-3-(2-methoxyphenyl)Propyl]-2,3-dihydro-5-methylspiro [isoquinoline-4(1H),4′-piperidin]-1-one] as the molecule, how does the Ki read?
**A.** 1210 nM
